Assay results taken from publication PMC12814185, “Receptor-Mediated Shuttling of a D‑Amino Acid Peptide Achieves High Nanomolar Cytosolic Concentrations” (Journal of the American Chemical Society, 2025).
Where a SMILES comes first, the peptide text is derived from it. Bridges are numbered along the chain shown (N, C = ends). Roman numbers before positions name the chains, in order. Triazole bridges read from a SMILES are 1,4-linked. Where no end group is shown, it is not given here. Side-chain parts run from the residue outwards. [ ]: non-standard residue; d: D form. The star is where a group is joined. X2 = CN1C(=C/C=C/C=C/C2=[N+](CCCCCC(=O)*)c3ccc(S(=O)(=O)[O-])cc3C2(C)C)C(C)(C)c2cc(S(=O)(=O)O)ccc21; X1 = CN1C(=CC=CC=CC2=[N+](CCCCCC(=O)*)c3ccc(S(=O)(=O)[O-])cc3C2(C)C)C(C)(C)c2cc(S(=O)(=O)O)ccc21; Lys(N3) = [N-]=[N+]=NCCCC[C@H](N)C(=O)O; Cit = NC(=O)NCCC[C@H](N)C(=O)O; d(hCys) = N[C@H](CCS)C(=O)O; PEG3 = NCCOCCOCCOCCC(=O)O; Pra = C#CC[C@H](N)C(=O)O

How the values were obtained:
[1] = test system: HEK293 cells stably expressing CMKLR1-eYFP; assay: Live cell fluorescence microscopy of peptide internalization, cells with CMKLR1; type: cell-based; conditions: 1 μM Cy5-labeled peptide, 6 h, cells transfected with CMKLR1
Procedure: (§1) 2 Internalization of cyclic chemerin-9 conjugates. Live cell fluorescence microscopy of HEK293 and HEK293 cells stably expressed CMKLR1-eYFP. Cells were incubated with 1 μM Cy5-labeled peptide for 6 h before imaging. Blue = Hoechst33342, yellow = CMKLR1-eYFP, magenta = Cy5-peptide, scale bar ≙ 10 μm. […]
(§2) Salt Solution (HBSS, Biowest), pH 7.5) for 1 h. […]
(§3) Experiments were performed in technical duplicates and at least […]
(§4) HEK293 and HEK293_CMKLR1-eYFP cells were seeded at 15,000 cells per well into poly-ᴅ-lysine coated 96-well plates (black µCLEAR, Greiner). The next day, dilutions of the Cy5 -labeled peptides or Nutlin-3a […]
(§5) Cells were then washed and a resazurin-based cell viability […]
(§6) assay was performed. […]
(§7) Experiments […]
(§8) were performed in technical triplicates and at least twice.
(§9) Peptide internalization was evaluated by fluorescence microscopy. HEK293 and stably transfected […]
(§10) microscopy slides (ibidi). The next day, 1 µM Cy5-labeled peptides in cell culture medium were added to the cells and incubated for 6 h.
(§11) FluoroBriteTM DMEM (Gibco) with 10% FBS, 25 mM HEPES (pH 7.4) before imaging on an AxioVision Observer.Z1 microscope equipped with an apotome imaging system, an HXP120C light source, and a C-Apochromat 63x/1.20 W objective. All shown microscopy images are representative of at least two

[2] = test system: HEK293 cells; assay: Live cell fluorescence microscopy of peptide internalization, cells without CMKLR1; type: cell-based; conditions: 1 μM Cy5-labeled peptide, 6 h
Procedure: as §1, §2, §3, §4, §5, §6, §7, §8, §9, §10, §11

[3] = FCS diffusion coefficient in solution; type: physicochemical; conditions: 10 nM in Fluorobrite DMEM, 22 °C, mean and SD of three independent measurements
Text: Fluorescence correlation spectroscopy (FCS) […] Nuclei were […] HEPES (pH 7.4). […] Prior to measurements, the correction collar of the objective […] Repeats […] is the autocorrelation at τ, N the average number of molecules in the focal volume, τD the average diffusion time through the focal volume, α the anomalous coefficient describing the hindered diffusion, S the shape factor of the focal volume, τE the time domain of the additional exponential term and E the fraction of molecules in the exponential term. […] [nM] [nM] […] 100 23.5 ± 40.2 11.9 *÷ 3.0 10.2 (5.2-32.1) 1000 138 ± 122 87.7 *÷ 3.0 98.8 (37.8-199) 10000 308 ± 257 239 *÷ 2.0 228 (157-435) […] Table S8. Predicted and measured diffusion coefficients D in solution. Measurements were performed with 10 nM of fluorescent compounds in Fluorobrite […] Data from three independent measurements. Mean and standard deviation are shown. name molecular predicted D measured […]] sulfo-Cy5 778.0 - 341.6 (reference) […] Intracellular cleavage product 2401.8 244.7 - 3Cy […]9 4475.1 175.0 138.5 ± 5.1 Intracellular cleavage product 2733.2 234.4 - 18

| Molecule | internalization [1] | internalization [2] | measured D in solution [3] [µm2/s] |
| --- | --- | --- | --- |
| CC(=O)N[C@@H](CCCCn1cc(C[C@H](NC(=O)CCOCCOCCOCCNC(=O)[C@H](CCCNC(N)=O)NC(=O)[C@@H](NC(=O)[C@H](CCC(=O)O)NC(=O)CNC(=O)CNC(=O)[C@@H](CCCNC(=N)N)NC(=O)[C@@H](CC(C)C)NC(=O)[C@@H](CC(C)C)NC(=O)[C@@H](C)NC(=O)[C@@H](CCC(=O)O)NC(=O)[C@@H](Cc2ccccc2)NC(=O)[C@@H](C)NC(=O)[C@@H](CC(C)C)NC(=O)[C@H]2CCCN2C(=O)[C@@H](Cc2c[nH]c3ccccc23)NC(=O)[C@@H](Cc2c[nH]c3ccccc23)NC(=O)[C@@H](CC(=O)O)NC(=O)CCOCCOCCOCCNC(=O)CCCCC[N+]2=C(/C=C/C=C/C=C3N(C)c4ccc(S(=O)(=O)O)cc4C3(C)C)C(C)(C)c3cc(S(=O)(=O)[O-])ccc32)C(C)C)C(N)=O)nn1)C(=O)N[C@@H](Cc1ccc(O)cc1)C(=O)N[C@@H](Cc1ccccc1)C(=O)N1CCC[C@H]1C(=O)N[C@@H]1CCSSC[C@@H](C(=O)O)NC(=O)[C@H](Cc2ccccc2)NC(=O)[C@H](C)NC(=O)[C@H](Cc2ccccc2)NC(=O)[C@H](CCC(N)=O)NC1=O [2Cy] (I: {X2-PEG3}-[dD][dW][dW][dP][dL][dA][dF][dE][dA][dL][dL][dR]GGEV[Cit][PEG3][Pra]-NH2 / II: Ac-[Lys(N3)]YFP[d(hCys)]QFAFC-OH; triazole I:19-II:1; disulfide II:5-II:10) | internalized efficiently | did not internalize | 154.2 ± 4.3 |
| I: GSVSHHHHHHGGHHHH[PEG3][dK]([PEG3-X1])[dD][dW][dW][dP][dL][dA][dF][dE][dA][dL][dL][dR]GEV[Cit][PEG3][Pra]-NH2 / II: Ac-[Lys(N3)]YFP[d(hCys)]QFAFC-OH (triazole I:36-II:1; disulfide II:5-II:10) [3Cy] | internalized efficiently | very faint intracellular signals | 138.5 ± 5.1 |
